{"source": "paper PMC6934184", "about": "“Selective DNA-PKcs inhibition extends the therapeutic index of localized radiotherapy and chemotherapy” (The Journal of Clinical Investigation, 2019)", "molecular_target": "T1, PASK (Homo sapiens, UniProt Q96RG2)", "T1 construct": "purchased Thermo Fisher Scientific (Life Technologies) SelectScreen", "T1 sequence (Q96RG2 whole entry)": "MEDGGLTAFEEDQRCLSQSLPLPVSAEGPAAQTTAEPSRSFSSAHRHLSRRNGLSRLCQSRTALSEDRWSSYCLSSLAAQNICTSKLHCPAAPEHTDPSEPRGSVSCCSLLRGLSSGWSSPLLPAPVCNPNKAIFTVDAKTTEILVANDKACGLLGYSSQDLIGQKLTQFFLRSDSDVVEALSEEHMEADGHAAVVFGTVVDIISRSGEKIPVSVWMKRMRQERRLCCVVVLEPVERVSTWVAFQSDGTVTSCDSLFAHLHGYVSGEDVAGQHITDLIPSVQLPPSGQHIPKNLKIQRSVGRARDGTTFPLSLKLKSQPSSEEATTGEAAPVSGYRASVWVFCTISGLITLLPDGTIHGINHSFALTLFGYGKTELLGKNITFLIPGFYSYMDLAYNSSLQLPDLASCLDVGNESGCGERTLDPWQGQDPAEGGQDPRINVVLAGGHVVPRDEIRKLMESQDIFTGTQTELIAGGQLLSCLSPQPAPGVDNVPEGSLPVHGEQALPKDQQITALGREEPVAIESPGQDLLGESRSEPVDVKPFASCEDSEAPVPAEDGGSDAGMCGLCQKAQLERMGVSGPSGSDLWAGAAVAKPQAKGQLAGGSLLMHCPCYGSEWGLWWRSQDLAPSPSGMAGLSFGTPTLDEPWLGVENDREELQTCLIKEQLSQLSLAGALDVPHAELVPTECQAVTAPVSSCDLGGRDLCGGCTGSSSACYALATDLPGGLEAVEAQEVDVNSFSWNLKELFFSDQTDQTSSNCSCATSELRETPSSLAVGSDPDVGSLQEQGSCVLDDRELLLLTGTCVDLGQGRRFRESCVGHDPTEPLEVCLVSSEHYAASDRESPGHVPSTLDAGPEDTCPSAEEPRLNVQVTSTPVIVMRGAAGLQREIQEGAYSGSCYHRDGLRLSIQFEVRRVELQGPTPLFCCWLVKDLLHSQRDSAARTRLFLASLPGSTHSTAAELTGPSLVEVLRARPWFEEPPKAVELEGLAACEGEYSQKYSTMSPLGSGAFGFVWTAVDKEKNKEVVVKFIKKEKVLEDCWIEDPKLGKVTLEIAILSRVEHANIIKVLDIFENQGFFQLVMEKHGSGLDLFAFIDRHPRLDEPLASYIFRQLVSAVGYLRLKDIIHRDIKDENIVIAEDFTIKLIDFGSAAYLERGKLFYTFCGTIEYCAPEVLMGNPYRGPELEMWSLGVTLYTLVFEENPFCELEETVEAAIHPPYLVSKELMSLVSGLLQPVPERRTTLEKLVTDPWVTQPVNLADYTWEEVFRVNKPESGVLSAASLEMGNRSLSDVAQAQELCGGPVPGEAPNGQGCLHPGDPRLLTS", "experiment": "SelectScreen Z'LYTE", "type": "biochemical", "how_it_was_run": "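Percent values come from Thermo SelectScreen profiling of NU5455, combining activity and binding assays. CSF1R was run in Z'LYTE format at Km app ATP, and CAMK1 in Adapta format with ATP listed at 10.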", "data": [{"smiles": "CN(C(=O)CN1CCOCC1)c1ccc2sc3c(-c4cccc5c(=O)cc(N6CC7CCC(C6)O7)oc45)cccc3c2c1", "note": "[NU5455]", "values": [{"measurement": "inhibition at 1 µM", "value": 2.3, "unit": "%"}]}]}
